# From patent publication US20110028400A1, “SULFATED UNSATURATED DISACCHARIDIC CHONDROITIN SULFATE IN CONNECTIVE TISSUE PROTECTION AND REPAIR” (NESTEC S.A., priority 2008, published 2011)
# Structures can show the parent of a compound that is named as a salt.
# Experiments:
# [1] = test system: explants of articular cartilage; test: IL1β-induced GAG (35S) release from cultured bovine articular cartilage explants; assay type: cell-based; settings: for slowing down cytokine-induced cartilage destruction in vitro: comparison among chondroitin disaccharides and higher molecular weight forms
# From the text: It was investigated here whether normal commercially available chondroitin sulphate and different low molecular weight forms of chondroitin sulphate including disaccharides could inhibit the degradation of aggrecan in cultured explants of articular cartilage. Explants from healthy bovine articular cartilage were put in culture and loaded with S^35. S^35 is incorporated in the glycosaminoglycan chains of the aggrecan molecules of the cartilage and its release in the media is considered as a surrogate marker of glycosaminoglycan release and aggrecan catabolism. However, explants from healthy bovine articular cartilage naturally display a very low catabolic activity which is not ideal to test the anti-catabolic activity of potential bioactives. To improve the sensitivity of the assay, the explants were cultured in presence of IL1β, a pro-inflammatory cytokine, known to act as a potent inducer of MMP and aggrecanase activities. The different low molecular weight forms of chondroitin sulphate were added to the culture media together with IL1β to see whether they can decrease the IL1β-induced aggrecan catabolism. In addition, the effects of the low molecular weight forms of chondroitin sulphate on IL1β-induced NO production were also investigated. Nitric oxide is a reactive oxygen species known to participate in the progression of osteoarthritis.
# (§1) The articular cartilage explants were dissected out of the metacarpophalangeal joint of old cows (8-10 years). The skin was removed from the feet. The articulation was opened transversally. Intraarticular ligaments were transected. […] Under the hood, similar quantities of cartilage were distributed between the wells of a 24-wells plate containing 500 μl of medium (DMEM+20% FBS, 1% penicillin/streptomycin, 0.1% gentamycin) per well. […]
# The following protocol is based on Campbell et al., Arch Biochem Biophys 234(1): 275-289 and Hascall V C et al., Arch Biochem Biophys 224(1): 206-223. […] After 72 hours, several washes were performed to eliminate the non-incorporated radioactivity. The explants were then treated for 72 hours, after which the supernatants were collected and the amount of radioactivity released in the medium was measured with a beta counter, as a marker of GAG catabolism. The radioactivity present in the explants was also measured and used to normalize the amount of radioactivity released into the media. The radioactivity was expressed in DPM ([…] per minute) and the GAG release is assessed by the following formula:
# GAG release=radioactivity in the supernatants/(radioactivity in the supernatants+radioactivity in the explants)
# [2] = rat intestinal loop model, bioavailability; assay type: in vivo
# [3] = test system: explants of articular cartilage; test: IL1β-induced NO production in cultured bovine articular cartilage explants; assay type: cell-based; settings: 500 μg/ml, with 50 ng/ml IL1β, 72 hours, 4 experiments
# From the text: It was investigated here whether normal commercially available chondroitin sulphate and different low molecular weight forms of chondroitin sulphate including disaccharides could inhibit the degradation of aggrecan in cultured explants of articular cartilage. Explants from healthy bovine articular cartilage were put in culture and loaded with S^35. S^35 is incorporated in the glycosaminoglycan chains of the aggrecan molecules of the cartilage and its release in the media is considered as a surrogate marker of glycosaminoglycan release and aggrecan catabolism. However, explants from healthy bovine articular cartilage naturally display a very low catabolic activity which is not ideal to test the anti-catabolic activity of potential bioactives. […]
# as §1, with “years).” for “years). The skin was removed from the feet. The articulation was opened transversally. Intraarticular ligaments were transected.”
# For NO measurements a protocol based on Gilliam et al., Anal Biochem 212(2): 359-365 was used. […] After ten minutes, absorbance was measured at 538 nm. To quantify the amount of NO in the supernatants, a standard curve was prepared using sodium nitrite (0-60 μM).
# [4] = test system: cartilage damages and proteoglycan loss; settings: 20 mg/kg body weight/day, 11 days before to 21 days after chymopapain injection; cited from earlier work
# [5] = test system: knee OA; settings: cited from earlier work
# [6] = test system: knee synovial fluids; settings: 10 days of 800 mg once a day; cited from earlier work
# [7] = test system: proteoglycan depletion in cartilage; settings: 100 and 300 mg/kg body weight/day, starting 2 weeks before bradikinin injections; cited from earlier work
molecule,measurement,setting,value
"CC(=O)N[C@H]1C(O)O[C@H](CO)[C@H](OS(=O)(=O)O)[C@@H]1O (stereo partly shown) [GalNac 4S, 4 sulfated N-acetylgalactosamine]",IL1β-induced GAG release (percentage of radioactivity release),"[1]; dose range 500-50-5 μg/ml, with 50 ng/ml IL1β, 72 hours, FIG. 2",no effect
"CC(=O)N[C@H]1C(O)O[C@H](CO)[C@H](OS(=O)(=O)O)[C@@H]1O[C@@H]1OC(C(=O)O)=C[C@H](O)[C@H]1O (stereo partly shown) [Δdi4S, 4-sulfated unsaturated disaccharidic chondroitin sulfate]",bioavailability,[2],more bioavailable than regular high molecular weight chondroitin sulfate
same,amount of NO in the supernatants compared to IL1β alone,[3],significantly (p<0.05) decreased
same,amount of GAG released in the supernatants compared to IL1β alone,"[1]; 500 μg/ml, with 50 ng/ml IL1β, 72 hours, 4 independent experiments",significantly (p<0.05) decreased
same,slowing down cytokine-induced cartilage destruction in vitro,[1],by far the most effective compound
Chondroitin sulfate [CS],cartilage damages and proteoglycan loss,[4],decreased cartilage damages and proteoglycan loss
same,improvement of the Lesquesne index versus diclofenac,"[5]; 400 mg of CS 3 times a day, double-blind RCT",slower than 50 mg of diclofenac
same,mean and minimum joint space width and joint space surface area on X-rays,"[5]; 800 mg CS, one year double-blind placebo-controlled RCT",decreased significantly in the placebo group but not in the 800 mg CS group
same,joint space narrowing,"[5]; 800 mg once a day, 2-year double-blind RCT, placebo mean joint space loss 0.14 mm",prevented joint space narrowing
same,function versus placebo,"[5]; 1000 mg per day, one trial",did not improve function better than placebo
same,"osteoarthritic symptoms, meta-analyses",[5]; 3 meta-analyses,superior to placebo
same,spontaneous pain and mobility versus placebo,"[5]; 6 of 7 double-blind placebo-controlled RCTs, 3 to 24 months, knee OA",more efficient than placebo
same,"pain and mobility, dose comparison",[5]; 800 and 1200 mg once a day,more effective on pain and mobility than placebo or 200 mg
same,"mobility, 1200 mg once a day versus 400 mg three times a day",[5]; both superior to placebo,No statistical significant difference
same,time before patients detect a significant difference in pain and mobility,"[5]; human, in vivo",at least 2 weeks
same,time required to reach full symptom relief,"[5]; human, in vivo",up to 2 months
same,mobility after intermittent treatment,"[5]; two 3 month-long periods in a year, 800 mg once a day",lasting effects by improving mobility compared to placebo
same,persistence of effects after termination of treatment,[5]; versus diclofenac,persisted longer than diclofenac effects
same,"activities of collagenase, phospholipase A2 and N-acetylglucosaminidase in knee synovial fluids",[6],decreasing
same,viscosity and hyaluronate concentration in knee synovial fluids,[6],significantly increased
same,slowing down cytokine-induced cartilage destruction in vitro,[1],did not have any significant effect
chondroitin-6 sulfate,proteoglycan depletion in cartilage,[7],reduced or prevented
